Converted amounts (≈) assume the structure as drawn. Where two headings read alike, the source gives them in different places.
Assays:
[1] = Osmolality test with freezing point equipment; assay type: physicochemical; conditions: solutions at a concentration of 0.1 M
[2] = system: mice; experiment: PET/CT imaging in an animal PET/CT scanner; assay type: in vivo; conditions: 130 µCi solution, gallium 68-labelled compound, Figure 7
[3] = system: V79 fibroblast cultures; experiment: IC50 in vitro by cell viability measurement; assay type: cell-based
Description: IC50 values were obtained by measuring cell viability in V79 fibroblast cultures as an alternative to animal experimentation. The values determined are summarized in the following table: Table 2: IC50 determination

[4] = system: mice; experiment: MRI imaging in a 7T animal magnetic resonance equipment; assay type: in vivo
Method: The test was carried out in a 7T animal magnetic resonance equipment by administering the contrast medium containing the compound (8) at a dose of 0.1 mmol/Kg to mice.

[5] = molecular target: T1, Bovine Serum Albumin (BSA) (Bos taurus, UniProt P02769); conditions: 5 h, 0.25 mM, pH 7.4
T1 sequence (P02769 25-607): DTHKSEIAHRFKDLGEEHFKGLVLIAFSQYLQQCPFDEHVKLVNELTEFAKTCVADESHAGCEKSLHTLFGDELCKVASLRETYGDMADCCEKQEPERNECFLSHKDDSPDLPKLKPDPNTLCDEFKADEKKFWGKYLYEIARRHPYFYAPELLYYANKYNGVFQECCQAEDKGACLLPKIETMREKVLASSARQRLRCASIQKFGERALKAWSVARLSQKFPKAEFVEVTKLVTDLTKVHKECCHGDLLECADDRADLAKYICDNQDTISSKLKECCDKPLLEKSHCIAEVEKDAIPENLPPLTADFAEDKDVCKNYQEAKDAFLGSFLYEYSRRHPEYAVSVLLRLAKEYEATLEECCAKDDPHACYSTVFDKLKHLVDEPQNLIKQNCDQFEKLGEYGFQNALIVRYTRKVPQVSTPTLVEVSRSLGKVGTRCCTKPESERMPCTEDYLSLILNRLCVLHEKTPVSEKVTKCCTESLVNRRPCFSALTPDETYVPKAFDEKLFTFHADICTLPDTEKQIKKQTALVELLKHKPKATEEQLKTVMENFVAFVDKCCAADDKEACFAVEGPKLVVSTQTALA
Method: (§1) The albumin affinity test was carried out by in-vitro studies using Thermo Scientific™ "Single-Use RED Plate with 8K MWCO Inserts" 96-well plate, Bovine Serum Albumin (BSA) and HEPES. The technique of the devices is based on the process of equilibrium dialysis. The tests were carried out in a HEPES buffer with a pH of 7.4. In a typical test, following the manufacturer's measurement procedure, 400 µL of a solution containing the compound to be studied and BSA in concentrations of 0.25 mM and 0.6 mM respectively, in HEPES buffer, are added to the sample well. Additionally, 600 µL of HEPES buffer is added in the buffer well. After shaking the system for five hours at 300 rpm at a constant temperature of 37 °C, the concentration of the compound in each well is analysed. This analysis was performed using an Agilent ICP-MS (7900 Series) and with these concentration data the percentage of affinity of the studied compounds was determined.

[6] = molecular target: T1, Bovine Serum Albumin (BSA); experiment: Albumin affinity test by equilibrium dialysis (RED plate), ICP-MS analysis; conditions: compound 0.25 mM, BSA 0.6 mM, HEPES buffer pH 7.4, five hours, 37 °C
Method: as §1

| Compound | Osmolality (mOs/Kg) [1] [mOs/Kg] | IC50 [3] [mg/mL] | other results |
| --- | --- | --- | --- |
| Gallium {10-{2-[2-(3-acetylamino-2,4,6-triiodophenylamino) aminoethyl]-2-oxoethyl}-1,4,7,10-tetraaza-1-cyclodecyl}-1,4,7-triacetate [Compound (7)] | 123.43 | 8.64 | organs differentiated in PET/CT images [2]: heart, liver, kidneys and bladder are differentiated |
| Europium {10-{2-{2-[2-(3-Carboxy-2,4,6-triiodophenylamino)-2-oxoethylamino] aminoethyl}-2-oxoethyl}-1,4,7,10-tetraaza-1-cyclodododecyl}-1,4,7-triacetate [Compound (16)] | 148.12 | >75 | – |
| Gadolinium {10-{2-[2-(3-acetylamino-2,4,6-triiodophenylamino) aminoethyl]-2-oxoethyl}-1,4,7,10-tetraaza-1-cyclodecyl}-1,4,7-triacetate [Compound (8)] | 117.58 | >75 | visualisation of the liver in MRI ([4]; additional study, MRI signal, figures 5 and 6): visualisation of the liver is possible; elimination route of the contrast medium (MRI) ([4]; mice, dose of 0.1 mmol/Kg, 7T MRI, figures 3 and 4): elimination via the kidneys |
| Europium {10-{2-[2-(3-acetylamino-2,4,6-triiodophenylamino) aminoethyl]-2-oxoethyl}-1,4,7,10-tetraaza-1-cyclodecyl}-1,4,7-trioacetate [Compound (9)] | 125.12 | >75 | – |
| Gadolinium {10-{2-{2-[2-(3-Carboxy-2,4,6-triiodophenylamino)-2-oxoethylamino] aminoethyl}-2-oxoethyl}-1,4,7,10-tetraaza-1-cyclodododecyl}-1,4,7-triacetate [Compound (15)] | 155.38 | >75 | – |
| CC(=O)Nc1c(I)cc(I)c(C(=O)O)c1I [Acetrizoic acid, reference compound] | 258.47 | – | Albumin affinity (%) [5]: 39.16%; IC50 ([3]; read-out: IC50): 4.04 mg/mL (≈ 7.25 mM) |
| Gallium {10-{2-{2-[2-(3-Carboxy-2,4,6-triiodophenylamino)-2-oxoethylamino] aminoethyl}-2-oxoethyl}-1,4,7,10-tetraaza-1-cyclodododecyl}-1,4,7-triacetate [Compound (14)] | 150.42 | 10.12 | – |
| O=C([O-])CN1CCN(CC(=O)[O-])CCN([C@H](CO)[C@H](O)CO)CCN(CC(=O)[O-])CC1.[Gd+3] (racemic) [Gadobutrol, reference compound] | 93.33 | >75 | Albumin affinity (%) [6]: Not detectable |

Reference: patent publication EP4015509A1, “ORGANOMETALLIC COMPOUNDS AND THEIR USE AS MULTIMODAL CONTRASTING MEDIA FOR IMAGING DIAGNOSIS” (Justesa Imagen S.A.U, priority 2020, dated 2022)
